Tests used:
[1] = test system: human umbilical vein endothelial cells (HUVECs); experiment: Inhibitory effect on HUVEC cell growth (MTS/PES colorimetry); type: cell-based; conditions: cultured 5 days, MTS/PES absorbance 490 nm
Protocol: Using human umbilical vein endothelial cells (HUVECs), the effect of the fumagillin analog conjugates and the fumagillin analogs on cell growth was evaluated.
The HUVECs were added to M199 medium supplemented with 20% FBS, after which the cells were incubated at 37° C. under 5% CO2. 96-well plates were seeded at 5,000 cells/well in a total volume of 100 μL. The cells were left overnight to attach to the plate. Cells were subcultured a maximum of 15 times before being discarded.
To evaluate the inhibitory activity of the fumagillin conjugate or the fumagillin analog alone on the growth of HUVEC cells, the conjugate or fumagillin analog was dissolved in the required amount of 0.9% saline, vortexed briefly to wet and disperse the solids, followed by vortexing for a total of 30 min. […] The cells were treated with the conjugate solution or fumagillin analog solution at various concentrations ranging from 30 nM to 0.01 nM, and cultured for 5 days at 37° C.
Colorimetry was performed to determine the extent of cell growth by adding 20 μL of MTS/PES reagent to each well, incubation for 4 h at 37° C. followed by measuring the absorbance at 490 nm.

[2] = test system: B16F10 tumor cells; experiment: Tumor growth delay in B16F10 mouse melanoma; type: in vivo; conditions: IV, q3d × 4, BDF1 mice
Protocol: BDF1 female mice (N=6) with 1×10^6 B16F10 tumor cells positioned subcutaneous in the flank were treated with various fumagillin conjugates of the invention. Tumor growth was monitored in parallel with positive and negative controls of cyclophosphamide and saline respectively. Treatment began when tumors reached an average size of 80-120 mg and tumor volumes were measured two times per week until animals reached an endpoint tumor volume of 2 grams or 45 days, whichever came first. Conjugates were administered as solutions in saline intravenously at dose levels of 30-100 mg/kg (expressed as fumagillin analog equivalents) on a schedule of q3dx4. Treatment outcomes were assessed in terms of percent tumor growth delay (% TGD), (see FIG. 1) defined as the percent increase in median time to endpoint for mice treated with an agent compared to those treated with saline.

[3] = 80 mg/kg fumagillin analog equiv.

Structure (SMILES)	IC50 ([1]; Homo sapiens, 120 h)	further results
COC(=O)C12CCC(C(=O)O[C@@H]3CC[C@]4(CO4)[C@@H](C4(C)O[C@@H]4CC=C(C)C)[C@@H]3OC)(CC1)CC2 (stereo partly drawn) [Compound 1]	< 0.025 µM	
CO[C@H]1[C@H](C2(C)O[C@@H]2CC=C(C)C)[C@]2(CC[C@H]1OC(=O)NC(=O)CCl)CO2 (stereo partly drawn) [Compound 2]	< 0.025 µM	
COC(=O)[C@@H](N)CSCC(=O)NC(=O)O[C@@H]1CC[C@]2(CO2)[C@@H](C2(C)O[C@@H]2CC=C(C)C)[C@@H]1OC (stereo partly drawn) [Compound 3]	< 0.025 µM	
CO[C@H]1[C@H](C2(C)O[C@@H]2CC=C(C)C)[C@]2(CC[C@H]1OC(=O)/C=C/c1ccc(O)cc1)CO2 (stereo partly drawn) [Compound 4]	> 0.03 µM	
CO[C@H]1[C@H](C2(C)O[C@@H]2CC=C(C)C)[C@]2(CC[C@H]1OC(=O)NCc1ccccc1)CO2 (stereo partly drawn) [Compound 5]	< 0.025 µM	
CO[C@H]1[C@H](C2(C)O[C@@H]2CC=C(C)C)[C@]2(CC[C@H]1OC(=O)N[C@@H](C)c1ccccc1)CO2 (stereo partly drawn) [Compound 6]	< 0.025 µM	% TGD [2, 3]: 5-20%
CO[C@H]1[C@H](C2(C)O[C@@H]2CC=C(C)C)[C@]2(CC[C@H]1OC(=O)N1CCN(CCO)CC1)CO2 (stereo partly drawn) [Compound 7]	< 0.025 µM	% TGD [2, 3]: 5-20%
CCN1CCN(C(=O)O[C@@H]2CC[C@]3(CO3)[C@@H](C3(C)O[C@@H]3CC=C(C)C)[C@@H]2OC)CC1 (stereo partly drawn) [Compound 9]	< 0.025 µM	% TGD ([2]; 100 mg/kg fumagillin analog equiv.): 20-50%
CO[C@H]1[C@H](C2(C)O[C@@H]2CC=C(C)C)[C@]2(CC[C@H]1OC(=O)N1CCN(C(C)=O)CC1)CO2 (stereo partly drawn) [Compound 10]	< 0.025 µM	% TGD ([2]; 60 mg/kg fumagillin analog equiv.): 20-50%
CO[C@H]1[C@H](C2(C)O[C@@H]2CC=C(C)C)[C@]2(CC[C@H]1OC(=O)NCCc1ccc(N)cc1)CO2 (stereo partly drawn) [Compound 11]	< 0.025 µM	% TGD ([2]; 65 mg/kg fumagillin analog equiv.): 20-50%
CO[C@H]1[C@H](C2(C)O[C@@H]2CC=C(C)C)[C@]2(CC[C@H]1OC(=O)N[C@H](C)c1ccccc1)CO2 (stereo partly drawn) [Compound 12]	< 0.025 µM	% TGD [2, 3]: 5-20%
CO[C@H]1[C@H](C2(C)O[C@@H]2CC=C(C)C)[C@]2(CC[C@H]1OC(=O)/C=C/c1ccccc1)CO2 (stereo partly drawn) [Compound 13]	> 0.03 µM	% TGD [2, 3]: 5-20%
COC(=O)[C@@H](N)CSCC(=O)NC(=O)O[C@@H]1CC[C@]2(CO2)[C@@H](C2(C)O[C@@H]2CC=C(C)C)[C@@H]1OC (stereo partly drawn) [Compound 14]		IC50 [1]: < 0.025 µM
CO[C@H]1[C@H](C2(C)O[C@@H]2CC=C(C)C)[C@]2(CC[C@H]1OC(=O)C(=O)N(C)OC)CO2 (stereo partly drawn) [Compound 15]	> 0.03 µM	% TGD [2, 3]: >50%
COC(=O)C(=O)O[C@@H]1CC[C@]2(CO2)[C@@H](C2(C)O[C@@H]2CC=C(C)C)[C@@H]1OC (stereo partly drawn) [Compound 16]	> 0.03 µM	% TGD [2, 3]: 20-50%
CO[C@H]1[C@H](C2(C)O[C@@H]2CC=C(C)C)[C@]2(CC[C@H]1OC(=O)NCc1ccc(NC(C)=O)cc1)CO2 (stereo partly drawn) [Compound 17]	< 0.025 µM	
CO[C@H]1[C@H](C2(C)O[C@@H]2CC=C(C)C)[C@]2(CC[C@H]1OC(=O)NCCc1ccc(NC(C)=O)cc1)CO2 (stereo partly drawn) [Compound 18]	< 0.025 µM	% TGD [2, 3]: 5-20%
CO[C@@H]1C(=O)CC[C@]2(CO2)[C@H]1C1(C)O[C@@H]1CC=C(C)C (stereo partly drawn) [Compound 20]	< 0.025 µM	
COc1cc(/C=C/C(=O)O[C@@H]2CC[C@]3(CO3)[C@@H](C3(C)O[C@@H]3CC=C(C)C)[C@@H]2OC)cc(OC)c1OC (stereo partly drawn) [Compound 21]	< 0.025 µM	
CO[C@H]1[C@H](C2(C)O[C@@H]2CC=C(C)C)[C@]2(CC[C@H]1OC(=O)/C=C/C=C/C=C/C=C/C(=O)O)CO2 (stereo partly drawn) [Compound 24]	< 0.025 µM	
CO[C@H]1[C@H](C2(C)O[C@@H]2CC=C(C)C)[C@]2(CC[C@H]1NC(=O)NC(=O)CCl)CO2 (stereo partly drawn) [Compound 28]	< 0.025 µM	

Structure (SMILES)	IC50 ([1]; Homo sapiens, 120 h)	further results
CCOC(=O)C1CCC(CNC(=O)O[C@@H]2CC[C@]3(CO3)[C@@H](C3(C)O[C@@H]3CC=C(C)C)[C@@H]2OC)CC1 (stereo partly drawn) [Compound 29]	< 0.025 µM	
CO[C@H]1[C@H](C2(C)O[C@@H]2CC=C(C)C)[C@]2(CC[C@H]1OC(=O)NC(=O)CSc1ccc(N)cc1)CO2 (stereo partly drawn) [Compound 30]	< 0.025 µM	
CO[C@H]1[C@H](C2(C)O[C@@H]2CC=C(C)C)[C@]2(CC[C@H]1OC(=O)NC(=O)CSc1ccc(C(=O)O)cc1)CO2 (stereo partly drawn) [Compound 34]	< 0.025 µM	
CO[C@H]1[C@H](C2(C)O[C@@H]2CC=C(C)C)[C@]2(CC[C@H]1OC(=O)/C=C/c1ccc(OCCN(C)C)cc1)CO2 (stereo partly drawn) [Compound 36]	< 0.025 µM	
COc1cc(/C=C/C(=O)N[C@@H]2CC[C@]3(CO3)[C@@H](C3(C)O[C@@H]3CC=C(C)C)[C@@H]2OC)cc(OC)c1OC (stereo partly drawn) [Compound 37]	0.025 to 0.1 µM	
CO[C@H]1[C@H](C2(C)O[C@@H]2CC=C(C)C)[C@]2(CC[C@H]1NC(=O)C13CCC(C(=O)NCCCOC(=O)[C@H](C)N)(CC1)CC3)CO2 (stereo partly drawn) [Compound 41]	0.1 to 0.3 µM	
CO[C@H]1[C@H](C2(C)O[C@@H]2CC=C(C)C)[C@]2(CC[C@H]1NC(=O)C13CCC(C(=O)NCCCOC(=O)C4CCCN4)(CC1)CC3)CO2 (stereo partly drawn) [Compound 42]	0.1 to 0.3 µM	
COC(=O)C12CCC(C(=O)N[C@@H]3CC[C@]4(CO4)[C@@H](C4(C)O[C@@H]4CC=C(C)C)[C@@H]3OC)(CC1)CC2 (stereo partly drawn) [Compound 43]	< 0.025 µM	
CO[C@H]1[C@H](C2(C)O[C@@H]2CC=C(C)C)[C@]2(CC[C@H]1NC(=O)CSc1ccc(N)cc1)CO2 (stereo partly drawn) [Compound 45]	< 0.025 µM	
COC(=O)c1ccc(C(=O)N[C@@H]2CC[C@]3(CO3)[C@@H](C3(C)O[C@@H]3CC=C(C)C)[C@@H]2OC)cc1 (stereo partly drawn) [Compound 46]	< 0.025 µM	
CO[C@H]1[C@H](C2(C)O[C@@H]2CC=C(C)C)[C@]2(CC[C@H]1OC(=O)NS(=O)(=O)N1CCN(C(C)=O)CC1)CO2 (stereo partly drawn) [Compound 47]	< 0.025 µM	
CO[C@H]1[C@H](C2(C)O[C@@H]2CC=C(C)C)[C@]2(CC[C@H]1NC(=O)c1ccc(C(=O)NCCCO)cc1)CO2 (stereo partly drawn) [Compound 48]	< 0.025 µM	
CO[C@H]1[C@H](C2(C)O[C@@H]2CC=C(C)C)[C@]2(CC[C@H]1NC(=O)C13CCC(C(=O)NCCCOC(=O)[C@@H]4CCCN4)(CC1)CC3)CO2 (stereo partly drawn) [Compound 49]	0.1 to 0.3 µM	
CO[C@H]1[C@H](C2(C)O[C@@H]2CC=C(C)C)[C@]2(CC[C@H]1OC(=O)NCc1ccc(NC(=O)[C@H](C)N)cc1)CO2 (stereo partly drawn) [Compound 50]	< 0.025 µM	
CO[C@H]1[C@H](C2(C)O[C@@H]2CC=C(C)C)[C@]2(CC[C@H]1OC(=O)NC(=O)CSc1cccc(NC(=O)CCC(=O)O)c1)CO2 (stereo partly drawn) [Compound 52]	< 0.025 µM	
CO[C@H]1[C@H](C2(C)O[C@@H]2CC=C(C)C)[C@]2(CC[C@H]1NC(=O)N1CCN(CCO)CC1)CO2 (stereo partly drawn) [Compound 53]	0.025 to 0.1 µM	
CO[C@H]1[C@H](C2(C)O[C@@H]2CC=C(C)C)[C@]2(CC[C@H]1OC(=O)N1CCN(CCOC(=O)CCC(=O)O)CC1)CO2 (stereo partly drawn) [Compound 54]	< 0.025 µM	
CO[C@H]1[C@H](C2(C)O[C@@H]2CC=C(C)C)[C@]2(CC[C@H]1OC(=O)N1CCN(CCOC(=O)C3CCCN3C(=O)OCC3c4ccccc4-c4ccccc43)CC1)CO2 (stereo partly drawn) [Compound 55]	< 0.025 µM	
CO[C@H]1[C@H](C2(C)O[C@@H]2CC=C(C)C)[C@]2(CC[C@H]1OC(=O)N1CCN(C(=O)[C@H](C)N)CC1)CO2 (stereo partly drawn) [Compound 56]	< 0.025 µM	
CO[C@H]1[C@H](C2(C)O[C@@H]2CC=C(C)C)[C@]2(CC[C@H]1NC(=O)NCCc1ccc(N)cc1)CO2 (stereo partly drawn) [Compound 57]	< 0.025 µM	

— US8399512B2, “Biocompatible biodegradable fumagillin analog conjugates” (Mersana Therapeutics, Inc., priority 2007, dated 2013)
